Test results: US20240217957A1, “HETEROCYCLIC COMPOUND AND USE THEREOF” (TAKEDA PHARMACEUTICAL COMPANY LIMITED, priority 2022, published 2024)

molecular target: T1, human OX2 receptor (Homo sapiens, UniProt O43614); assay: Measurement of orexin type 2 receptor agonist activity (calcium fluorescence, Fluo-4 AM, FDSS); assay type: cell-based; details: compound at 3 μM; CHO cells forcibly expressing human OX2 receptor; DMSO = 0%, 10 nM orexin A (human) = 100%
T1 construct: expressed in transfected cells
T1 sequence (O43614 1-444): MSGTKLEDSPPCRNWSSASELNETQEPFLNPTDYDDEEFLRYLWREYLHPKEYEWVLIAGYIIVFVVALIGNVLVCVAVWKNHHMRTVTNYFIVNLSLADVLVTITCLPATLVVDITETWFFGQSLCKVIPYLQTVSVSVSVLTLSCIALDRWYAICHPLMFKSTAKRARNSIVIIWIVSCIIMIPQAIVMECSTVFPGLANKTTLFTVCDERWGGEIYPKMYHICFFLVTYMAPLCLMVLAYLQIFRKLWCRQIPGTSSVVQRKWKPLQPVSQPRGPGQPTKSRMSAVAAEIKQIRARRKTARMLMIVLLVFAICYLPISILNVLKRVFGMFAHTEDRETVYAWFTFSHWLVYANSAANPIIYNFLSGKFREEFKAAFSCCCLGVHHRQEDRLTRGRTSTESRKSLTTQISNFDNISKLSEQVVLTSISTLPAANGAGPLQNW
Method in brief: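 CHO-K1 cells stably expressing human OX2 receptor (residues 1-444) loaded with Fluo-4 AM in HBSS/20 mM HEPES/0.1% BSA with probenecid, 30 min at 37° C. then 30 min at room temperature. After compound addition, calcium fluorescence read for 1 min 40 s; activity (%) scaled to DMSO (0%) and 10 nM orexin A (100%).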

| OX2R agonist activity (3 μM, %) | Structure (SMILES) |
| --- | --- |
| 98% | CS(=O)(=O)N[C@@H]1CN(C2=NOC(c3ncc(F)cc3-c3c(F)cccc3F)(C(F)F)C2)CC1(F)F (stereo partly drawn) [Example 126, N-[(3R)-1-{5-(difluoromethyl)-5-[3-(2,6-difluorophenyl)-5-fluoropyridin-2-yl]-4,5-dihydro-1,2-oxazol-3-yl}-4,4-difluoropyrrolidin-3-yl]methanesulfonamide] |
| 100% | Cc1cc(-c2c(F)cccc2F)c(C2CC(N3C[C@@H](NS(C)(=O)=O)C(F)(F)C3)=NO2)cn1 (stereo partly drawn) [Example 127, N-[(3R)-1-{5-[4-(2,6-difluorophenyl)-6-methylpyridin-3-yl]-4,5-dihydro-1,2-oxazol-3-yl}-4,4-difluoropyrrolidin-3-yl]methanesulfonamide] |
| 105% | O=S(=O)(CF)N[C@@H]1CN(C2=NO[C@H](c3ncc(F)cc3-c3c(F)cc(F)cc3F)C2)CC1(F)F [Example 128, N-[(3R)-4,4-difluoro-1-{(5S)-5-[5-fluoro-3-(2,4,6-trifluorophenyl)pyridin-2-yl]-4,5-dihydro-1,2-oxazol-3-yl}pyrrolidin-3-yl]-1-fluoromethanesulfonamide] |
| 102% | CS(=O)(=O)N[C@@H]1CN(C2=NOC(CF)(c3ncc(Cl)cc3-c3c(F)cccc3F)C2)C[C@@H]1F (stereo partly drawn) [Example 129, N-[(3R,4S)-1-{5-[5-chloro-3-(2,6-difluorophenyl)pyridin-2-yl]-5-(fluoromethyl)-4,5-dihydro-1,2-oxazol-3-yl}-4-fluoropyrrolidin-3-yl]methanesulfonamide] |
| 104% | CCC1(c2ncc(F)cc2-c2c(F)cccc2F)CC(N2C[C@@H](NS(C)(=O)=O)C(F)(F)C2)=NO1 (stereo partly drawn) [Example 130, N-[(3R)-1-{5-[3-(2,6-difluorophenyl)-5-fluoropyridin-2-yl]-5-ethyl-4,5-dihydro-1,2-oxazol-3-yl}-4,4-difluoropyrrolidin-3-yl]methanesulfonamide] |
| 112% | COCC1(c2ncc(F)cc2-c2c(F)cccc2F)CC(N2C[C@@H](NS(C)(=O)=O)C(F)(F)C2)=NO1 (stereo partly drawn) [Example 131, N-[(3R)-1-{5-[3-(2,6-difluorophenyl)-5-fluoropyridin-2-yl]-5-(methoxymethyl)-4,5-dihydro-1,2-oxazol-3-yl}-4,4-difluoropyrrolidin-3-yl]methanesulfonamide] |
| 110% | CCS(=O)(=O)N[C@@H]1CN(C2=NOC(COC)(c3ncc(F)cc3-c3c(F)cccc3F)C2)C[C@@H]1F (stereo partly drawn) [Example 132, N-[(3R,4S)-1-{5-[3-(2,6-difluorophenyl)-5-fluoropyridin-2-yl]-5-(methoxymethyl)-4,5-dihydro-1,2-oxazol-3-yl}-4-fluoropyrrolidin-3-yl]ethanesulfonamide] |
| 107% | CCS(=O)(=O)N[C@@H]1CN(C2=NOC(c3ncc(Cl)cc3-c3c(F)cccc3F)C2)C[C@@H]1F (stereo partly drawn) [Example 133, N-[(3R,4S)-1-{5-[5-chloro-3-(2,6-difluorophenyl)pyridin-2-yl]-4,5-dihydro-1,2-oxazol-3-yl}-4-fluoropyrrolidin-3-yl]ethanesulfonamide] |
| 103% | Cc1ncc(C2CC(N3C[C@@H](NS(C)(=O)=O)C(F)(F)C3)=NO2)c(-c2c(F)cccc2F)n1 (stereo partly drawn) [Example 134, N-[(3R)-1-{5-[4-(2,6-difluorophenyl)-2-methylpyrimidin-5-yl]-4,5-dihydro-1,2-oxazol-3-yl}-4,4-difluoropyrrolidin-3-yl]methanesulfonamide] |
| 115% | CS(=O)(=O)N[C@@H]1CN(C2=NOC(CO)(c3ncc(C(F)F)cc3-c3c(F)cccc3F)C2)CC1(F)F (stereo partly drawn) [Example 135, N-[(3R)-1-{5-[5-(difluoromethyl)-3-(2,6-difluorophenyl)pyridin-2-yl]-5-(hydroxymethyl)-4,5-dihydro-1,2-oxazol-3-yl}-4,4-difluoropyrrolidin-3-yl]methanesulfonamide] |
| 114% | CS(=O)(=O)N[C@@H]1CN(C2=NOC(c3c(F)ccc(F)c3-c3c(F)cccc3F)C2)CC1(F)F (stereo partly drawn) [Example 136, N-{(3R)-4,4-difluoro-1-[5-(2′,3,6,6′-tetrafluoro[1,1'-biphenyl]-2-yl)-4,5-dihydro-1,2-oxazol-3-yl]pyrrolidin-3-yl}methanesulfonamide] |
| 102% | CS(=O)(=O)N[C@@H]1CN(C2=NOC(c3ccc(F)c(F)c3-c3c(F)cccc3F)C2)C[C@@H]1F (stereo partly drawn) [Example 137, N-{(3R,4S)-4-fluoro-1-[5-(2′,5,6,6′-tetrafluoro[1,1′-biphenyl]-2-yl)-4,5-dihydro-1,2-oxazol-3-yl]pyrrolidin-3-yl}methanesulfonamide] |
| 105% | CS(=O)(=O)N[C@@H]1CN(C2=NOC(c3c(F)cc(F)cc3-c3ncc(F)cc3F)C2)CC1(F)F (stereo partly drawn) [Example 138, N-[(3R)-1-{5-[2-(3,5-difluoropyridin-2-yl)-4,6-difluorophenyl]-4,5-dihydro-1,2-oxazol-3-yl}-4,4-difluoropyrrolidin-3-yl]methanesulfonamide] |
| 94% | CS(=O)(=O)N[C@@H]1CN(C2=NOC(c3c(F)cc(F)cc3-c3ncc(F)cc3F)C2)C[C@@H]1F (stereo partly drawn) [Example 139, N-[(3R,4S)-1-{5-[2-(3,5-difluoropyridin-2-yl)-4,6-difluorophenyl]-4,5-dihydro-1,2-oxazol-3-yl}-4-fluoropyrrolidin-3-yl]methanesulfonamide] |
| 89% | CS(=O)(=O)N[C@@H]1CN(C2=NOC(c3ccc(F)c(F)c3-c3c(F)cccc3F)C2)CC1(F)F (stereo partly drawn) [Example 140, N-{(3R)-4,4-difluoro-1-[5-(2′,5,6,6′-tetrafluoro[1,1′-biphenyl]-2-yl)-4,5-dihydro-1,2-oxazol-3-yl]pyrrolidin-3-yl}methanesulfonamide] |
| 97% | CS(=O)(=O)N[C@@H]1CN(C2=NOC(c3c(F)cccc3-c3c(F)cccc3F)C2)C[C@@H]1F (stereo partly drawn) [Example 141, N-{(3R,4S)-4-fluoro-1-[5-(2′,3,6′-trifluoro[1,1′-biphenyl]-2-yl)-4,5-dihydro-1,2-oxazol-3-yl]pyrrolidin-3-yl}methanesulfonamide] |
| 102% | CS(=O)(=O)N[C@@H]1CN(C2=NOC(CO)(c3ncc(Cl)cc3-c3c(F)cccc3F)C2)CC1(F)F (stereo partly drawn) [Example 142, N-[(3R)-1-{5-[5-chloro-3-(2,6-difluorophenyl)pyridin-2-yl]-5-(hydroxymethyl)-4,5-dihydro-1,2-oxazol-3-yl}-4,4-difluoropyrrolidin-3-yl]methanesulfonamide] |
| 109% | CCS(=O)(=O)N[C@@H]1CN(C2=NOC(c3ncc(Cl)cc3-c3c(F)cccc3F)C2)CC1(F)F (stereo partly drawn) [Example 143, N-[(3R)-1-{5-[5-chloro-3-(2,6-difluorophenyl)pyridin-2-yl]-4,5-dihydro-1,2-oxazol-3-yl}-4,4-difluoropyrrolidin-3-yl]ethanesulfonamide] |
| 98% | CS(=O)(=O)N[C@@H]1CN(C2=NOC(c3c(F)cc(F)cc3-c3c(F)cccc3F)C2)C[C@@H]1F (stereo partly drawn) [Example 144, N-{(3R,4S)-4-fluoro-1-[5-(2′,3,5,6′-tetrafluoro[1,1′-biphenyl]-2-yl)-4,5-dihydro-1,2-oxazol-3-yl]pyrrolidin-3-yl}methanesulfonamide] |
